#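 Tested at 5 concentrations; 48 h exposure; 96-well plates; endpoints linearly interpolated, else capped at highest concentration. GI50 = concentration required for 50% inhibition of growth. TGI is the concentration that stops growth completely.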
# Legend:
# Test in all cases: NCI-60 cell line screen, 48 h
# HOP-62 NSCLC = tested on: HOP-62 NSCLC
# ACHN renal = tested on: ACHN renal
# DMS 114 small cell lung = tested on: DMS 114 small cell lung
# MOLT-4 leukemia = tested on: MOLT-4 leukemia
# NCI-H23 lung = tested on: NCI-H23 lung
# OVCAR-4 ovarian = tested on: OVCAR-4 ovarian
# UO-31 renal = tested on: UO-31 renal
# DLD-1 colon = tested on: DLD-1 colon
# 786-0 renal = tested on: 786-0 renal
# A498 renal = tested on: A498 renal
# SK-MEL-2 melanoma = tested on: SK-MEL-2 melanoma
# OVCAR-5 ovarian = tested on: OVCAR-5 ovarian
# RPMI-8226 leukemia = tested on: RPMI-8226 leukemia
# KM12 colon = tested on: KM12 colon
# HCC-2998 colon = tested on: HCC-2998 colon
# IGROV1 ovarian = tested on: IGROV1 ovarian
# SNB-78 CNS = tested on: SNB-78 CNS
# HCT-116 colon = tested on: HCT-116 colon
# NCI-H460 lung = tested on: NCI-H460 lung
# EKVX NSCLC = tested on: EKVX NSCLC
# UACC-62 melanoma = tested on: UACC-62 melanoma
# OVCAR-3 ovarian = tested on: OVCAR-3 ovarian
# U251 CNS = tested on: U251 CNS
# SK-MEL-28 melanoma = tested on: SK-MEL-28 melanoma
# LXFL 529 NSCLC = tested on: LXFL 529 NSCLC
# SF-268 CNS = tested on: SF-268 CNS
# K-562 leukemia = tested on: K-562 leukemia
# TK-10 renal = tested on: TK-10 renal
# HT29 colon = tested on: HT29 colon
# SR leukemia = tested on: SR leukemia
# UACC-257 melanoma = tested on: UACC-257 melanoma
# COLO 205 colon = tested on: COLO 205 colon
# HL-60(TB) leukemia = tested on: HL-60(TB) leukemia
# SK-OV-3 ovarian = tested on: SK-OV-3 ovarian
# SF-539 CNS = tested on: SF-539 CNS
# HOP-18 NSCLC = tested on: HOP-18 NSCLC
# XF 498 CNS = tested on: XF 498 CNS
# DMS 273 small cell lung = tested on: DMS 273 small cell lung
# SNB-19 CNS = tested on: SNB-19 CNS
# KM20L2 colon = tested on: KM20L2 colon
# HOP-92 NSCLC = tested on: HOP-92 NSCLC
# CCRF-CEM leukemia = tested on: CCRF-CEM leukemia
# MALME-3M melanoma = tested on: MALME-3M melanoma
# CAKI-1 renal = tested on: CAKI-1 renal
# M19-MEL melanoma = tested on: M19-MEL melanoma
# HCT-15 colon = tested on: HCT-15 colon
# LOX IMVI melanoma = tested on: LOX IMVI melanoma
# SF-295 CNS = tested on: SF-295 CNS
# SK-MEL-5 melanoma = tested on: SK-MEL-5 melanoma
# SW-620 colon = tested on: SW-620 colon
# OVCAR-8 ovarian = tested on: OVCAR-8 ovarian
# SN12C renal = tested on: SN12C renal
# NCI-H226 lung = tested on: NCI-H226 lung
# M14 melanoma = tested on: M14 melanoma
# A549 NSCLC = tested on: A549 NSCLC
# SNB-75 CNS = tested on: SNB-75 CNS
compound,measurement,setting,value
COc1cccc(/C=N/[N-]C(=O)c2ccncc2)c1[O-].[Ni+2].[OH3+],GI50,HOP-62 NSCLC,> 100 µM
same,TGI,HOP-62 NSCLC,> 100 µM
same,GI50,ACHN renal,> 100 µM
same,TGI,ACHN renal,> 100 µM
same,GI50,DMS 114 small cell lung,> 100 µM
same,TGI,DMS 114 small cell lung,> 100 µM
same,GI50,MOLT-4 leukemia,> 100 µM
same,TGI,MOLT-4 leukemia,> 100 µM
same,GI50,NCI-H23 lung,> 100 µM
same,TGI,NCI-H23 lung,> 100 µM
same,GI50,OVCAR-4 ovarian,> 100 µM
same,TGI,OVCAR-4 ovarian,> 100 µM
same,GI50,UO-31 renal,> 100 µM
same,TGI,UO-31 renal,> 100 µM
same,GI50,DLD-1 colon,> 100 µM
same,TGI,DLD-1 colon,> 100 µM
same,GI50,786-0 renal,> 100 µM
same,TGI,786-0 renal,> 100 µM
same,GI50,A498 renal,> 100 µM
same,TGI,A498 renal,> 100 µM
same,GI50,SK-MEL-2 melanoma,> 100 µM
same,TGI,SK-MEL-2 melanoma,> 100 µM
same,GI50,OVCAR-5 ovarian,> 100 µM
same,TGI,OVCAR-5 ovarian,> 100 µM
same,GI50,RPMI-8226 leukemia,> 100 µM
same,TGI,RPMI-8226 leukemia,> 100 µM
same,GI50,KM12 colon,> 100 µM
same,TGI,KM12 colon,> 100 µM
same,GI50,HCC-2998 colon,> 100 µM
same,TGI,HCC-2998 colon,> 100 µM
same,GI50,IGROV1 ovarian,> 100 µM
same,TGI,IGROV1 ovarian,> 100 µM
same,GI50,SNB-78 CNS,> 100 µM
same,TGI,SNB-78 CNS,> 100 µM
same,GI50,HCT-116 colon,> 100 µM
same,TGI,HCT-116 colon,> 100 µM
same,GI50,NCI-H460 lung,> 100 µM
same,TGI,NCI-H460 lung,> 100 µM
same,GI50,EKVX NSCLC,> 100 µM
same,TGI,EKVX NSCLC,> 100 µM
same,GI50,UACC-62 melanoma,> 100 µM
same,TGI,UACC-62 melanoma,> 100 µM
same,GI50,OVCAR-3 ovarian,> 100 µM
same,TGI,OVCAR-3 ovarian,> 100 µM
same,GI50,U251 CNS,> 100 µM
same,TGI,U251 CNS,> 100 µM
same,GI50,SK-MEL-28 melanoma,> 100 µM
same,TGI,SK-MEL-28 melanoma,> 100 µM
same,GI50,LXFL 529 NSCLC,> 100 µM
same,TGI,LXFL 529 NSCLC,> 100 µM
same,GI50,SF-268 CNS,> 100 µM
same,TGI,SF-268 CNS,> 100 µM
same,GI50,K-562 leukemia,> 100 µM
same,TGI,K-562 leukemia,> 100 µM
same,GI50,TK-10 renal,> 100 µM
same,TGI,TK-10 renal,> 100 µM
same,GI50,HT29 colon,> 100 µM
same,TGI,HT29 colon,> 100 µM
same,GI50,SR leukemia,> 100 µM
same,TGI,SR leukemia,> 100 µM
same,GI50,UACC-257 melanoma,> 100 µM
same,TGI,UACC-257 melanoma,> 100 µM
same,GI50,COLO 205 colon,> 100 µM
same,TGI,COLO 205 colon,> 100 µM
same,GI50,HL-60(TB) leukemia,> 100 µM
same,TGI,HL-60(TB) leukemia,> 100 µM
same,GI50,SK-OV-3 ovarian,> 100 µM
same,TGI,SK-OV-3 ovarian,> 100 µM
same,GI50,SF-539 CNS,> 100 µM
same,TGI,SF-539 CNS,> 100 µM
same,GI50,HOP-18 NSCLC,> 100 µM
same,TGI,HOP-18 NSCLC,> 100 µM
same,GI50,XF 498 CNS,> 100 µM
same,TGI,XF 498 CNS,> 100 µM
same,GI50,DMS 273 small cell lung,> 100 µM
same,TGI,DMS 273 small cell lung,> 100 µM
same,GI50,SNB-19 CNS,> 100 µM
same,TGI,SNB-19 CNS,> 100 µM
same,GI50,KM20L2 colon,> 100 µM
same,TGI,KM20L2 colon,> 100 µM
same,GI50,HOP-92 NSCLC,> 100 µM
same,TGI,HOP-92 NSCLC,> 100 µM
same,GI50,CCRF-CEM leukemia,> 100 µM
same,TGI,CCRF-CEM leukemia,> 100 µM
same,GI50,MALME-3M melanoma,> 100 µM
same,TGI,MALME-3M melanoma,> 100 µM
same,GI50,CAKI-1 renal,> 100 µM
same,TGI,CAKI-1 renal,> 100 µM
same,GI50,M19-MEL melanoma,> 100 µM
same,TGI,M19-MEL melanoma,> 100 µM
same,GI50,HCT-15 colon,> 100 µM
same,TGI,HCT-15 colon,> 100 µM
same,GI50,LOX IMVI melanoma,> 100 µM
same,TGI,LOX IMVI melanoma,> 100 µM
same,GI50,SF-295 CNS,> 100 µM
same,TGI,SF-295 CNS,> 100 µM
same,GI50,SK-MEL-5 melanoma,> 100 µM
same,TGI,SK-MEL-5 melanoma,> 100 µM
same,GI50,SW-620 colon,> 100 µM
same,TGI,SW-620 colon,> 100 µM
same,GI50,OVCAR-8 ovarian,> 100 µM
same,TGI,OVCAR-8 ovarian,> 100 µM
same,GI50,SN12C renal,> 100 µM
same,TGI,SN12C renal,> 100 µM
same,GI50,NCI-H226 lung,> 100 µM
same,TGI,NCI-H226 lung,> 100 µM
same,GI50,M14 melanoma,> 100 µM
same,TGI,M14 melanoma,> 100 µM
same,GI50,A549 NSCLC,> 100 µM
same,TGI,A549 NSCLC,> 100 µM
same,GI50,SNB-75 CNS,> 100 µM
same,TGI,SNB-75 CNS,> 100 µM

# — PubChem BioAssay (NCI)
